Assays:
[1] = biological target: T1, Aspergillus fumigatus Amadoriase I variant SS03 (Ser67Cys + Pro121Cys), SEQ ID NO: 4 (Aspergillus fumigatus, UniProt O42629, P121C/S67C); assay: Steady-state kinetics of Amadoriase variant SS03 towards fructosyl-lysine (glucosone formation at 322 nm); type: biochemical; settings: apparent, fructosyl-lysine 0.05 mM to 2 mM, 10 mM Tris HCl pH 7.4, 20 mM o-Phenylenediamine, three independent experiments
T1 construct: E. coli codon-optimised gene in bacterial (Novagen, pET-type) vector
Description: (§1) Enzymatic activity was followed by a continuous assay that detects glucosone formation over time from fructosyl-lysine at 322 nm. The 200 μl reaction mixture contained 10 mM Tris HCl pH 7.4, 20 mM o-Phenylenediamine, 2 mM fructosyl-lysine. After 1 minute of pre-incubation, the reaction was started adding 4.5 μg of enzyme, and the increase in absorbance at 322 nm (glucosone ε322=149.25 M^−1cm^−1) was monitored in a Spark10M (Tecan).
(§2) Apparent steady-state parameters for the enzymes over its natural substrate were determined by means of the assay described above, with fructosyl-lysine concentrations varied from 0.05 mM to 2 mM. Data points were obtained from three independent experiments. Kinetic parameters were calculated using a non-linear least-square fit of the data, and fitted with Eq. 1 (the Michaelis-Menten equation for hyperbolic substrate kinetics) using Hyperbola fit function of GraphPad Prism version 5.00 for Windows, GraphPad Software, La Jolla Calif. USA.
(§3) [formula] in which v, Vmax, S, and Km represent the steady state reaction rate, maximum reaction rate, substrate concentration, and Michaelis-Menten constant for the substrate, respectively.

[2] = biological target: T2, Aspergillus fumigatus Amadoriase I variant SS17 (Asp295Cys + Lys303Cys), SEQ ID NO: 6 (Aspergillus fumigatus, UniProt O42629, D295C/K303C); assay: Steady-state kinetics of Amadoriase variant SS17 towards fructosyl-lysine (glucosone formation at 322 nm); type: biochemical; settings: apparent, fructosyl-lysine 0.05 mM to 2 mM, 10 mM Tris HCl pH 7.4, 20 mM o-Phenylenediamine, three independent experiments
T2 construct: E. coli codon-optimised gene in bacterial (Novagen, pET-type) vector
Description: as §1, §2, §3

With `N[C@@H](CCCCNCC(=O)[C@@H](O)[C@H](O)[C@H](O)CO)C(=O)O` [fructosyl-lysine] the kcat [1] was 21.90 ± 2.73 s⁻¹, the kcat/Km [1] was 64170 ± 25500 M⁻¹ s⁻¹ and the kcat [2] was 22.91 ± 2.12 s⁻¹. It also gave a kcat/Km [2] of 33340 ± 10160 M⁻¹ s⁻¹.

Source: US11649440B2, “Thermostabilized Amadoriases and uses thereof” (FONDAZIONE ISTITUTO ITALIANO DI TECNOLOGIA, priority 2017, dated 2023)
